Laboratory results: paper PMC11838007, “Contribution of telacebec to novel drug regimens in a murine tuberculosis model” (Antimicrobial Agents and Chemotherapy, 2024)
Converted amounts (≈) assume the structure as drawn. Read-outs that look alike come from different tables or passages of the source.

What was measured:
M. tuberculosis H37Rv [1] = assay: microbe, parasite or virus in culture; assay type: cell-based
M. tuberculosis HN878 [2] = assay: microbe, parasite or virus in culture; assay type: cell-based
M. tuberculosis H37Rv [3] = assay: microbe, parasite or virus in culture; assay type: cell-based; details: Mycobacterium tuberculosis, read-out: MIC, 7H9 Broth, H37Rv
M. tuberculosis H37Rv [4] = assay: Pyrazinamide susceptibility by MGIT; assay type: cell-based; details: Mycobacterium tuberculosis, susceptibility determined by MGIT, read-out: MIC, H37Rv (7H9 Broth)
M. tuberculosis HN878 [5] = assay: Pyrazinamide susceptibility by MGIT; assay type: cell-based; details: Mycobacterium tuberculosis, susceptibility determined by MGIT, read-out: MIC, HN878 (7H9 Broth)
M. tuberculosis HN878 [6] = assay: microbe, parasite or virus in culture; assay type: cell-based; remark: listed apart in the source
M. tuberculosis H37Rv [7] = assay type: in vivo, Mycobacterium tuberculosis
M. tuberculosis H37Rv [8] = details: in vivo, 25 mg/kg; cited from earlier work
[9] = plasma, week 4, Experiment 3, mean ± SD; for Concentration of Telacebec at steady state, 1h: 1 h post-dose; for Concentration of Telacebec at steady state, 5h: 5 h post-dose; for Concentration of Telacebec at steady state, 24h: 24 h post-dose
Method: For S587 and its M3 metabolite, the mean concentrations were compared between mice administered S587 alone and mice administered S587 in combination with T 10 mg/kg (T10), T 50 mg/kg (T50), and T10 plus C. For T, the mean concentrations were compared between mice administered T10 alone and T10 in combination with S587 and S587 + C, as well as between mice administered T50 alone and T50 in combination with S587.
Multidose PK of T and TBAJ-587 in plasma was characterized in infected female BALB/c mice (Charles River Laboratories, Wilmington, MA) receiving oral doses once daily. In week 4 of treatment in Experiment 3, three mice per group per time point were sampled by submandibular bleed at 1, 5, and 24 hours post-dose. Drug concentrations were quantified by a validated high-performance liquid chromatography/mass spectrometry method (Alliance Pharma Inc, Devault, PA).

M. tuberculosis = details: phase 2a study; cited from earlier work
[10] = Mycobacterium tuberculosis, H37RV; read-out: MIC, 7H11 Agar, H37Rv
[11] = Mycobacterium tuberculosis, HN878; read-out: MIC, 7H11 Agar, HN878
[12] = Mycobacterium tuberculosis, HN878; read-out: MIC, 7H9 Broth, HN878

## COc1nc2ccc(Br)cc2cc1[C@@H](c1ccccc1)[C@@](O)(CCN(C)C)c1cccc2ccccc12 [Bedaquiline, bedaquiline]
M. tuberculosis H37Rv [1]; [10]
  MIC: 0.03 µg/mL (≈ 0.054 µM)
M. tuberculosis HN878 [2]; [11]
  MIC: 0.03 µg/mL (≈ 0.054 µM)
M. tuberculosis H37Rv [3]
  MIC: 0.25 µg/mL (≈ 0.45 µM)

## NC(=O)c1cnccn1 [Pyrazinamide, pyrazinamide]
M. tuberculosis H37Rv [4]
  MIC: < 100 µg/mL
M. tuberculosis HN878 [5]
  MIC: < 100 µg/mL

## O=[N+]([O-])c1cn2c(n1)OC[C@@H](OCc1ccc(OC(F)(F)F)cc1)C2 [Pretomanid, pretomanid]
M. tuberculosis H37Rv [1]; [10]
  MIC: 0.06 µg/mL (≈ 0.167 µM)
M. tuberculosis HN878 [2]; [11]
  MIC: 0.125 µg/mL (≈ 0.348 µM)
M. tuberculosis HN878 [6]; [12]
  MIC: 0.06 µg/mL (≈ 0.167 µM)
M. tuberculosis H37Rv [3]
  MIC: 0.125 µg/mL (≈ 0.348 µM)

## COc1c(N2C[C@@H]3CCCN[C@@H]3C2)c(F)cc2c(=O)c(C(=O)O)cn(C3CC3)c12 [Moxifloxacin, moxifloxacin]
M. tuberculosis HN878 [6]; [12]
  MIC: 0.25 µg/mL (≈ 0.623 µM)
M. tuberculosis H37Rv [3]
  MIC: 0.5 µg/mL (≈ 1.25 µM)

## COc1cc([C@](O)(CCN(C)C)[C@@H](c2cc3cc(Br)ccc3nc2OC)c2cccc(OC)c2F)cc(OC)n1 [TBAJ-587]
M. tuberculosis H37Rv [7]; in vivo
  mean (±SD) log10 CFU counts, W4: 3.40 ± 0.47 log10 CFU
M. tuberculosis H37Rv [7]; in vivo, 12.5 mg/kg
  reduction of bacterial burden over 4 weeks: more than 4 log10
M. tuberculosis H37Rv [1]; Mycobacterium tuberculosis, H37RV, read-out: MIC, 7H11 Agar, H37Rv
  MIC: 0.008 µg/mL (≈ 0.013 µM)
M. tuberculosis HN878 [2]; Mycobacterium tuberculosis, HN878, read-out: MIC, 7H11 Agar, HN878
  MIC: 0.004 µg/mL (≈ 0.00651 µM)
M. tuberculosis H37Rv [8]
  reduction of lung CFU count over 4 weeks: approximately 5 log10

## CCc1nc2ccc(Cl)cn2c1C(=O)NCc1ccc(N2CCC(c3ccc(OC(F)(F)F)cc3)CC2)cc1 [Telacebec, telacebec]
M. tuberculosis H37Rv [7]; Experiment 3, T at 10 and 50 mg/kg, 4 weeks, no dose-response
  effect of single drug treatment on lung CFU counts compared to D0: bacteriostatic
M. tuberculosis H37Rv [7]; Experiment 3, lungs, 4 weeks of treatment, T at 10 mg/kg where given, S587 12.5, C 12.5, Z 150 mg/kg, D0 7.52 ± 0.13
  mean (±SD) log10 CFU counts, W4: 7.65 ± 0.05 log10 CFU
M. tuberculosis H37Rv [7]; Experiment 3, lungs, 4 weeks of treatment, T at 50 mg/kg, S587 12.5 mg/kg, D0 7.52 ± 0.13
  mean (±SD) log10 CFU counts, W4: 7.70 ± 0.06 log10 CFU
M. tuberculosis H37Rv [1]; Mycobacterium tuberculosis, 432 h; parental H37Rv strain; agar proportion method; […]; read-out: MIC
  MIC: 0.008 µg/mL (≈ 0.0144 µM)
M. tuberculosis H37Rv [1]; [10]
  MIC: 0.008 µg/mL (≈ 0.0144 µM)
M. tuberculosis HN878 [2]; [11]
  MIC: 0.002 µg/mL (≈ 0.00359 µM)
[9]; T 10 mg/kg
  Concentration of Telacebec at steady state, 1h: 1462 ± 435 ng/mL
  Concentration of Telacebec at steady state, 5h: 2265 ± 102 ng/mL
  Concentration of Telacebec at steady state, 24h: 921 ± 337 ng/mL
[9]; T 50 mg/kg
  Concentration of Telacebec at steady state, 1h: 2642 ± 1857 ng/mL
  Concentration of Telacebec at steady state, 5h: 7310 ± 3990 ng/mL
  Concentration of Telacebec at steady state, 24h: 3008 ± 330 ng/mL
M. tuberculosis
  early bactericidal activity in TB patients: dose-dependent early bactericidal activity

## COc1ncnc(Cn2cc(C(=O)NCCO)c3ncc(C)cc32)c1C [TBA-7371]
M. tuberculosis H37Rv [1]; [10]
  MIC: 0.25 µg/mL (≈ 0.703 µM)
M. tuberculosis HN878 [2]; [11]
  MIC: 0.5 µg/mL (≈ 1.41 µM)

## COc1cc([C@](O)(CCN(C)C)[C@@H](c2cc3cc(Br)ccc3nc2OC)c2cc(OC)nc(OC)c2OC)cc(OC)n1 [TBAJ-876]
M. tuberculosis H37Rv [7]; Experiment 2, S876 6.25 mg/kg, 4 weeks
  reduction of CFU counts over 4 weeks compared to D0: more than 3.5 log10
M. tuberculosis H37Rv [7]; Experiment 2, lungs, 4 weeks of treatment, doses mg/kg/dose as subscripts, bid = twice daily, D0 7.51 ± 0.06, lower limit of detection 1.66 log10
  mean (±SD) log10 CFU counts, W4: 3.74 ± 0.44 log10 CFU
M. tuberculosis H37Rv [1]; [10]
  MIC: 0.002 to 0.004 µg/mL (≈ 0.00304 to 0.00608 µM)
M. tuberculosis HN878 [2]; [11]
  MIC: 0.004 µg/mL (≈ 0.00608 µM)

## CC(C)/N=c1\cc2n(-c3ccc(Cl)cc3)c3ccccc3nc-2cc1Nc1ccc(Cl)cc1 [Clofazimine, clofazimine]
M. tuberculosis H37Rv [1]; [10]
  MIC: 0.25 µg/mL (≈ 0.528 µM)
M. tuberculosis HN878 [2]; [11]
  MIC: 0.25 µg/mL (≈ 0.528 µM)

## CC(=O)NC[C@H]1CN(c2ccc(N3CCOCC3)c(F)c2)C(=O)O1 [Linezolid, linezolid]
M. tuberculosis H37Rv [1]; [10]
  MIC: 0.5 µg/mL (≈ 1.48 µM)
M. tuberculosis HN878 [6]; [12]
  MIC: 0.5 µg/mL (≈ 1.48 µM)
M. tuberculosis H37Rv [3]
  MIC: 1 µg/mL (≈ 2.96 µM)

## CO[C@H]1/C=C/O[C@@]2(C)Oc3c(C)c(O)c4c(O)c(c(/C=N/N5CCN(C)CC5)c(O)c4c3C2=O)NC(=O)/C(C)=C\C=C\[C@H](C)[C@H](O)[C@@H](C)[C@@H](O)[C@@H](C)[C@H](OC(C)=O)[C@@H]1C [Rifampin]
M. tuberculosis HN878 [6]; Mycobacterium tuberculosis, HN878, read-out: MIC, 7H9 Broth, HN878
  MIC: 0.25 µg/mL (≈ 0.304 µM)
M. tuberculosis H37Rv [3]
  MIC: 0.25 µg/mL (≈ 0.304 µM)
